PubChem BioAssay (NCI)
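Each compound was tested at five concentrations against cells in 96-well plates for 48 hours. GI50 is the concentration that inhibits growth by half. TGI marks complete inhibition of growth.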

Key:
Test in all cases: NCI tumour cell line growth inhibition, 48 h
[1] = tested on: MDA-MB-435
[2] = tested on: ACHN renal
[3] = tested on: HOP-92 NSCLC
[4] = tested on: PC-3 prostate
[5] = tested on: SF-295 CNS
[6] = tested on: CAKI-1 renal
[7] = tested on: SK-MEL-2 melanoma
[8] = tested on: OVCAR-5 ovarian
[9] = tested on: NCI/ADR-RES ovarian
[10] = tested on: RXF 393 renal

Compound: Fc1ccc2c(c1)C1=C(CO2)C(c2ccc(Cl)cc2)NC(=S)N1 (stereo not given)
- GI50 [1]: 21.6 µM
- TGI [1]: 51.1 µM
- GI50 [2]: 37.4 µM
- TGI [2]: > 100 µM
- GI50 [3]: 61 µM
- TGI [3]: > 100 µM
- GI50 [4]: 37.2 µM
- TGI [4]: > 100 µM
- GI50 [5]: 15.6 µM
- TGI [5]: 47.3 µM
- GI50 [6]: 19.1 µM
- TGI [6]: 59.6 µM
- GI50 [7]: 24.3 µM
- TGI [7]: 46.9 µM
- GI50 [8]: 28.2 µM
- TGI [8]: 84.3 µM
- GI50 [9]: 29.8 µM
- TGI [9]: 65.4 µM

Compound: COc1nc2c(nc(N)n2C2OCC(O)C(O)C2O)c(=O)n1C (stereo not given)
- TGI [2]: > 100 µM
- TGI [3]: > 100 µM
- TGI [5]: > 100 µM
- TGI [6]: > 100 µM
- TGI [10]: > 100 µM

Compound: C=C1CCCC2[C@](C)(CC3=C(O)C(=O)C=C(OC)C3=O)[C@@H](C)CC[C@]12C (stereo not given in full)
- TGI [2]: 47.7 µM
- TGI [5]: 13.7 µM
- TGI [6]: 27.9 µM
- TGI [7]: 12.5 µM
- TGI [10]: 10.6 µM

Compound: O=c1cccccc1[O-].O=c1cccccc1[O-].O=c1cccccc1[O-].[Ce+3]
- TGI [2]: 96.3 µM
- TGI [3]: 89.9 µM
- TGI [5]: 78.1 µM
- TGI [6]: > 100 µM
- TGI [7]: 51.6 µM
- TGI [10]: 40.4 µM
- TGI [8]: > 100 µM

Compound: Cn1ccnc1CCc1ccc(Cl)c(Cl)c1
- TGI [2]: > 100 µM
- TGI [3]: > 100 µM
- TGI [5]: > 100 µM
- TGI [6]: > 100 µM
- TGI [7]: > 100 µM
- TGI [10]: > 100 µM
- TGI [8]: > 100 µM

Compound: Clc1ccc(CNc2nccc(-c3cnn4ncccc34)n2)cc1
- GI50 [1]: 6.3 µM
- TGI [1]: 20.6 µM
- GI50 [2]: 5.95 µM
- TGI [2]: > 25 µM
- GI50 [4]: 6.76 µM
- TGI [4]: > 24 µM
- GI50 [5]: 5.36 µM
- TGI [5]: > 18.2 µM
- GI50 [6]: 5.62 µM
- TGI [6]: > 18.8 µM
- GI50 [7]: 5.25 µM
- TGI [7]: 11.5 µM
- GI50 [10]: 4.88 µM
- TGI [10]: 10.2 µM
- GI50 [8]: 7.66 µM
- TGI [8]: 24.7 µM
- GI50 [9]: 6.75 µM
- TGI [9]: > 25 µM

Compound: CCOC(=O)c1ccc(N2C(=O)Cc3ccccc3C2=O)cc1
- TGI [2]: > 100 µM
- TGI [5]: > 100 µM
- TGI [7]: > 100 µM
- TGI [10]: > 100 µM
- TGI [8]: > 100 µM

Compound: Cc1ccccc1C(=O)Oc1ccc(OCc2ccccc2)cc1
- TGI [2]: > 100 µM
- TGI [3]: > 100 µM
- TGI [5]: > 100 µM
- TGI [10]: > 100 µM
- TGI [8]: > 100 µM

Compound: O=[N+]([O-])c1ccc([N+]2=NC(c3ccccc3)=NN(c3ccccc3)C2)cc1
- TGI [2]: > 100 µM
- TGI [3]: > 100 µM
- TGI [5]: > 100 µM
- TGI [6]: > 100 µM
- TGI [7]: 92.4 µM
- TGI [10]: > 100 µM
- TGI [8]: > 100 µM

Compound: Nc1nccc2c1ncn2C1OC(CO)C(O)C1O (stereo not given)
- GI50 [2]: > 100 µM
- TGI [2]: > 100 µM
- GI50 [3]: 92.2 µM
- TGI [3]: > 100 µM
- GI50 [4]: > 100 µM
- TGI [4]: > 100 µM
- GI50 [5]: > 100 µM
- TGI [5]: > 100 µM
- GI50 [6]: > 100 µM
- TGI [6]: > 100 µM
- GI50 [7]: > 100 µM
- TGI [7]: > 100 µM
- GI50 [10]: 48.5 µM
- TGI [10]: > 100 µM
- GI50 [8]: > 100 µM
- TGI [8]: > 100 µM
- GI50 [9]: > 100 µM
- TGI [9]: > 100 µM

Compound: CCOC(=O)C(C)(C)Oc1ccc2c(-c3ccc(Cl)cc3)c(-c3ccc(Cl)cc3)c(=O)oc2c1
- TGI [2]: > 100 µM
- TGI [5]: > 100 µM
- TGI [7]: > 100 µM
- TGI [10]: > 100 µM

Compound: CC(=O)OC1CCC2C(=CCC3C2(C)C(=O)CC2(C)C(C4(C)OC(C(C)C)=CC4=O)C(O)CC32C)C1(C)C (stereo not given)
- TGI [2]: > 100 µM
- TGI [3]: > 100 µM
- TGI [6]: > 100 µM
- TGI [7]: 62.3 µM
- TGI [8]: > 100 µM

Compound: CC(=O)/C=C1\CC(=O)Nc2ccccc2N1
- TGI [2]: > 100 µM
- TGI [3]: > 100 µM
- TGI [5]: > 100 µM
- TGI [6]: > 100 µM
- TGI [7]: > 100 µM
- TGI [10]: > 100 µM
- TGI [8]: > 100 µM

Compound: S=c1sc2cscc2s1
- TGI [2]: 42.5 µM
- TGI [3]: 70.3 µM
- TGI [5]: > 100 µM
- TGI [6]: 31.4 µM
- TGI [7]: > 100 µM
- TGI [10]: 51.5 µM
- TGI [8]: > 100 µM

Compound: CSc1ccc(SC2c3ccc(C)cc3Oc3nc(N)c(C#N)c(N)c32)cc1 (stereo not given)
- GI50 [1]: 1.77 µM
- TGI [1]: 3.27 µM
- GI50 [2]: 1.61 µM
- TGI [2]: 2.96 µM
- GI50 [3]: 1.9 µM
- TGI [3]: 3.76 µM
- GI50 [4]: 1.64 µM
- TGI [4]: 3.22 µM
- GI50 [5]: 1.58 µM
- TGI [5]: 2.97 µM
- GI50 [7]: 2.11 µM
- TGI [7]: 4.12 µM
- GI50 [10]: 1.71 µM
- TGI [10]: 3.12 µM
- GI50 [8]: 1.71 µM
- TGI [8]: 3.24 µM
- GI50 [9]: 2.22 µM
- TGI [9]: 5.46 µM

Compound: CS/C(c1ccccc1)=[N+](\[O-])Cc1ccccc1
- TGI [2]: > 100 µM
- TGI [3]: > 100 µM
- TGI [5]: > 100 µM
- TGI [6]: > 100 µM
- TGI [7]: > 100 µM
- TGI [10]: > 100 µM
- TGI [8]: > 100 µM

Compound: O=C(NC1C2CC3CC(C2)CC1C3)/C(Cl)=C1/Sc2ccccc2NC1=O (stereo not given)
- TGI [2]: > 100 µM
- TGI [3]: > 100 µM
- TGI [5]: > 100 µM
- TGI [6]: > 100 µM
- TGI [10]: > 100 µM
- TGI [8]: > 100 µM

Compound: CCN(CC)CCn1c2ccc(OC)cc2c2sc3cc(OC)ccc3c(=O)c21
- GI50 [1]: 1.73 µM
- TGI [1]: 3.22 µM
- GI50 [2]: 1 µM
- TGI [2]: 2.77 µM
- GI50 [3]: 1.13 µM
- TGI [3]: 2.75 µM
- GI50 [5]: 1.82 µM
- TGI [5]: 3.45 µM
- GI50 [6]: 1.65 µM
- TGI [6]: 3.77 µM
- GI50 [7]: 2.1 µM
- TGI [7]: 4.68 µM
- GI50 [10]: 1.4 µM
- TGI [10]: 2.79 µM
- GI50 [8]: 1.92 µM
- TGI [8]: 4.92 µM
- GI50 [9]: 1.24 µM
- TGI [9]: 3.6 µM

Compound: COC(=O)[C@H](C)NC(=O)[C@@H](OC)[C@@H]1Cc2cc3cc(OC4CC(OC5CC(O)C(O)C(C)O5)C(O)C(C)O4)c(C)c(O)c3c(O)c2C(=O)[C@H]1OC1CC(OC2CC(OC3CC(C)(O)C(O)C(C)O3)C(O)C(C)O2)C(O)C(C)O1 (stereo not given in full)
- GI50 [1]: 0.0755 µM
- TGI [1]: 0.905 µM
- GI50 [2]: 0.119 µM
- TGI [2]: 2.23 µM
- GI50 [3]: 0.115 µM
- TGI [3]: 7.1 µM
- GI50 [4]: 0.184 µM
- TGI [4]: > 50 µM
- GI50 [5]: 0.0885 µM
- TGI [5]: > 50 µM
- GI50 [6]: 0.129 µM
- TGI [6]: 2.02 µM
- GI50 [7]: 0.0908 µM
- TGI [7]: 0.588 µM
- GI50 [8]: 0.158 µM
- TGI [8]: > 50 µM
- GI50 [9]: 12.3 µM
- TGI [9]: > 50 µM

Compound: O=C(O)c1ccccc1N=Nc1ccc2oc(=O)c(C(=O)Nc3ccccc3)cc2c1
- TGI [2]: > 100 µM
- TGI [5]: > 100 µM
- TGI [10]: > 100 µM

Compound: O=C1C(=O)N(c2nccs2)C(=O)C(=O)C1c1nc2ccccc2s1
- TGI [2]: > 100 µM
- TGI [3]: > 100 µM
- TGI [5]: > 100 µM
- TGI [6]: > 100 µM
- TGI [7]: > 100 µM
- TGI [10]: > 100 µM
- TGI [8]: > 100 µM
